# Experimental data from publication PMC8217813, “Bridging Computational Vaccinology and Vaccine Development Through Systematic Identification, Characterization, and Downselection of Conserved and Variable Circumsporozoite Protein CD4 T Cell Epitopes From Diverse Plasmodium falciparum Strains” (Frontiers in Immunology, 2021).
# Peptide text beside a SMILES is read from it.
# Legend:
# [1] = target: T1, HLA-DRB1*1501 (Homo sapiens, UniProt P01903+P01911); assay: In vitro class II HLA binding competition assay
# T1 construct: purchased
# Experimental: (§1) EpiVax conducted in vitro quantification of peptide-HLA binding affinity utilizing a competition assay format per the methodology described in ([35]). Briefly, a fluorescent-labeled, high-binding reference peptide and titrating concentrations of test peptide were incubated in a 96-well plate format with limiting concentrations of class II HLA monomers in aqueous buffer for 24-hours. Post incubation, the mixtures were moved to a 96-well plate coated with anti-HLA-DR antibody to capture HLA-peptide complexes. Time-resolved fluorescence measurement of the bound labeled reference peptide complex present in each mixture were detected with a europium-linked probe via fluorescent spectrophotometry using a SpectraMax M5 system. HLA binding affinity of each test peptide was expressed as the percent inhibition of reference peptide binding. Percent inhibition values (across the test peptide titration range) were used to calculate the half maximal inhibitory concentration (IC50) of each test peptide. For these studies, test peptides were assessed using a range of final concentrations from 100,000 nM to 100 nM and all peptides were reconstituted in dimethyl sulfoxide (DMSO).
# [2] = target: HLA-DRB1*0701 (Homo sapiens, UniProt P01903+P01911, A100R/A102G/A103Q/D57E/D86V/E43K/F76Y/K127E/L162R/M171V/P40G/Q125H/Q99D/R33Q/R42Y/R54Q/S133A/S66F/T210M/V115G/Y107V/Y59L/Y89S); assay: In vitro class II HLA binding competition assay
# Experimental: as §1
# [3] = target: HLA-DRB1*1301 (Homo sapiens, UniProt P01903+P01911, A100E/A169T/K41T/L162R/M171V/P40S/Q125H/Q178H/Q39Y/Q99D/R42S/S66N/T262R/W38E/Y61H); assay: In vitro class II HLA binding competition assay; details: competition with fluorescent-labeled reference peptide, class II HLA monomers, 24-hours, test peptide 100,000 nM to 100 nM, time-resolved fluorescence
# Experimental: as §1
# [4] = target: HLA-DRB1*0801 (Homo sapiens, UniProt P01903+P01911, A100R/A103L/A169T/D86S/F76Y/H45Y/I96F/K41T/L162R/M171V/P40S/Q125H/Q178H/Q39Y/Q99D/R218S/R42G/S66Y/V115G/W38E); assay: In vitro class II HLA binding competition assay; details: competition with fluorescent-labeled reference peptide, class II HLA monomers, 24-hours, test peptide 100,000 nM to 100 nM, time-resolved fluorescence
# Experimental: as §1
# [5] = target: T2, HLA-DRB1*0401 (Homo sapiens, UniProt P01903+P01911, A100K/A169T/F76Y/I96L/K127E/L162R/M171V/N62H/P40V/Q125Y/R42H/S133A/S149N/S66Y/V115G/V209L/W38E); assay: In vitro class II HLA binding competition assay
# T2 construct: purchased
# Experimental: as §1
# [6] = target: T3, HLA-DRB1*1101 (Homo sapiens, UniProt P01903+P01911, A100R/A169T/A87E/I96F/K41T/L162R/M171V/P40S/Q125H/Q178H/Q39Y/Q99D/R42S/S66Y/T262R/V115G/W38E); assay: In vitro class II HLA binding competition assay; details: competition with fluorescent-labeled reference peptide, class II HLA monomers, 24-hours, test peptide 100,000 nM to 100 nM, time-resolved fluorescence
# T3 construct: purchased
# Experimental: as §1
# [7] = target: T4, HLA-DRB1*0101 (Homo sapiens, UniProt P01903+P01911, A100R/D57E/F55L/F60I/F76Y/I96L/L162R/M171V/P40L/Q125E/R42F/V115G/Y59C); assay: In vitro class II HLA binding competition assay; details: competition with fluorescent-labeled reference peptide, class II HLA monomers, 24-hours, test peptide 100,000 nM to 100 nM, time-resolved fluorescence
# T4 construct: purchased
# Experimental: as §1
# [8] = tested on: CD4 T cells co-cultured with autologous DCs from PBMCs; type: cell-based, human; details: positive = Stimulation Index ≥1.5-fold above baseline, 5 µg/mL peptide
compound,measurement,setting,value
CC[C@H](C)[C@H](NC(C)=O)C(=O)N[C@H](C(=O)N[C@@H](CCC(=O)O)C(=O)N[C@@H](Cc1ccc(O)cc1)C(=O)N[C@@H](CC(C)C)C(=O)N[C@@H](CCCCN)C(=O)N[C@@H](CCCCN)C(=O)N[C@H](C(=O)N[C@@H](CCC(N)=O)C(=O)N[C@@H](CC(N)=O)C(=O)N[C@@H](CO)C(=O)N[C@@H](CC(C)C)C(=O)N[C@@H](CO)C(=O)N[C@H](C(=O)N[C@@H](CCC(=O)O)C(=O)N[C@@H](Cc1c[nH]c2ccccc12)C(=O)N[C@@H](CO)C(=O)N1CCC[C@H]1C(=O)N[C@@H](CS)C(=O)N[C@@H](CO)C(N)=O)[C@@H](C)O)[C@@H](C)CC)[C@@H](C)O [ICS2] (Ac-ITEYLKKIQNSLSTEWSPCS-NH2),IC50,[1],8.47 µM
same,IC50,[2],20 µM
same,IC50,[3],73.2 µM
same,IC50,[4],4.76 µM
same,IC50,[5],0.377 µM
same,IC50,[6],43.7 µM
same,IC50,[7],83.9 µM
same,"Percentage of donors demonstrating IFN-γ responses, DR1","[8]; DR1 donors N=5, ICCS after 14-day co-culture",40%
same,"Percentage of donors demonstrating IL-2 responses, DR1","[8]; DR1 donors N=5, ICCS",40%
same,"Percentage of donors demonstrating IL-4 responses, DR1","[8]; DR1 donors N=5, ICCS",0%
same,"Percentage of donors demonstrating IL-10 responses, DR1","[8]; DR1 donors N=5, ICCS",0%
same,"Percentage of donors demonstrating TNF-α responses, DR1","[8]; DR1 donors N=5, ICCS",40%
same,"Percentage of donors demonstrating IFN-γ responses, DR3","[8]; DR3 donors N=6, ICCS after 14-day co-culture",33%
same,"Percentage of donors demonstrating IL-2 responses, DR3","[8]; DR3 donors N=6, ICCS",33%
same,"Percentage of donors demonstrating IL-4 responses, DR3","[8]; DR3 donors N=6, ICCS",33%
same,"Percentage of donors demonstrating IL-10 responses, DR3","[8]; DR3 donors N=6, ICCS",33%
same,"Percentage of donors demonstrating TNF-α responses, DR3","[8]; DR3 donors N=6, ICCS",17%
same,"Percentage of donors demonstrating IFN-γ responses, DR4","[8]; DR4 donors N=10, ICCS after 14-day co-culture",40%
same,"Percentage of donors demonstrating IL-2 responses, DR4","[8]; DR4 donors N=10, ICCS",20%
same,"Percentage of donors demonstrating IL-4 responses, DR4","[8]; DR4 donors N=10, ICCS",10%
same,"Percentage of donors demonstrating IL-10 responses, DR4","[8]; DR4 donors N=10, ICCS",0%
same,"Percentage of donors demonstrating TNF-α responses, DR4","[8]; DR4 donors N=10, ICCS",50%
same,"Percentage of donors demonstrating IFN-γ responses, DR7","[8]; DR7 donors N=4, ICCS after 14-day co-culture",50%
same,"Percentage of donors demonstrating IL-2 responses, DR7","[8]; DR7 donors N=4, ICCS",0%
same,"Percentage of donors demonstrating IL-4 responses, DR7","[8]; DR7 donors N=4, ICCS",0%
same,"Percentage of donors demonstrating IL-10 responses, DR7","[8]; DR7 donors N=4, ICCS",0%
same,"Percentage of donors demonstrating TNF-α responses, DR7","[8]; DR7 donors N=4, ICCS",25%
same,"Percentage of donors demonstrating IFN-γ responses, DR8","[8]; DR8 donors N=4, ICCS after 14-day co-culture",50%
same,"Percentage of donors demonstrating IL-2 responses, DR8","[8]; DR8 donors N=4, ICCS",25%
same,"Percentage of donors demonstrating IL-4 responses, DR8","[8]; DR8 donors N=4, ICCS",0%
same,"Percentage of donors demonstrating IL-10 responses, DR8","[8]; DR8 donors N=4, ICCS",25%
same,"Percentage of donors demonstrating TNF-α responses, DR8","[8]; DR8 donors N=4, ICCS",50%
same,"Percentage of donors demonstrating IFN-γ responses, DR9","[8]; DR9 donors N=4, ICCS after 14-day co-culture",0%
same,"Percentage of donors demonstrating IL-2 responses, DR9","[8]; DR9 donors N=4, ICCS",25%
same,"Percentage of donors demonstrating IL-4 responses, DR9","[8]; DR9 donors N=4, ICCS",0%
same,"Percentage of donors demonstrating IL-10 responses, DR9","[8]; DR9 donors N=4, ICCS",0%
same,"Percentage of donors demonstrating TNF-α responses, DR9","[8]; DR9 donors N=4, ICCS",25%
same,"Percentage of donors demonstrating IFN-γ responses, DR11","[8]; DR11 donors N=4, ICCS after 14-day co-culture",25%
same,"Percentage of donors demonstrating IL-2 responses, DR11","[8]; DR11 donors N=4, ICCS",25%
same,"Percentage of donors demonstrating IL-4 responses, DR11","[8]; DR11 donors N=4, ICCS",0%
same,"Percentage of donors demonstrating IL-10 responses, DR11","[8]; DR11 donors N=4, ICCS",0%
same,"Percentage of donors demonstrating TNF-α responses, DR11","[8]; DR11 donors N=4, ICCS",50%
same,"Percentage of donors demonstrating IFN-γ responses, DR13","[8]; DR13 donors N=7, ICCS after 14-day co-culture",57%
same,"Percentage of donors demonstrating IL-2 responses, DR13","[8]; DR13 donors N=7, ICCS",29%
same,"Percentage of donors demonstrating IL-4 responses, DR13","[8]; DR13 donors N=7, ICCS",14%
same,"Percentage of donors demonstrating IL-10 responses, DR13","[8]; DR13 donors N=7, ICCS",29%
same,"Percentage of donors demonstrating TNF-α responses, DR13","[8]; DR13 donors N=7, ICCS",71%
same,"Percentage of donors demonstrating IFN-γ responses, DR15","[8]; DR15 donors N=7, ICCS after 14-day co-culture",43%
same,"Percentage of donors demonstrating IL-2 responses, DR15","[8]; DR15 donors N=7, ICCS",14%
same,"Percentage of donors demonstrating IL-4 responses, DR15","[8]; DR15 donors N=7, ICCS",0%
same,"Percentage of donors demonstrating IL-10 responses, DR15","[8]; DR15 donors N=7, ICCS",14%
same,"Percentage of donors demonstrating TNF-α responses, DR15","[8]; DR15 donors N=7, ICCS",29%
